Data published in ChEMBL document CHEMBL1201862, “PubChem BioAssay data set” (2004).
Structures can show the parent of a compound that is named as a salt.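 Assay format: 96-well plates, 48-hour exposure. At the GI50, growth is halved.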 Activity calls are given as the source filed them. Rule as the data show it: active = GI50 up to about 1.1 µM and inactive = higher.

Columns and labels:
Experiment in all cases: NCI tumour cell line growth inhibition, 48 h
TK-10 = tested on: TK-10
ACHN = tested on: ACHN
DLD-1 = tested on: DLD-1
SR = tested on: SR
KM-20L2 = tested on: KM-20L2
A498 = tested on: A498
U-251 = tested on: U-251
K562 = tested on: K562
XF498 = tested on: XF498
DMS-273 = tested on: DMS-273
MDA-MB-435 = tested on: MDA-MB-435
HL-60 = tested on: HL-60
UACC-257 = tested on: UACC-257
HOP-92 = tested on: HOP-92
CCRF-CEM = tested on: CCRF-CEM
SNB-78 = tested on: SNB-78
CAKI-1 = tested on: CAKI-1
NCI-H226 = tested on: NCI-H226
HCT-116 = tested on: HCT-116
HOP-18 = tested on: HOP-18
SNB-75 = tested on: SNB-75
DMS-114 = tested on: DMS-114
RXF 393 = tested on: RXF 393
RPMI-8226 = tested on: RPMI-8226
SF-539 = tested on: SF-539
SF-295 = tested on: SF-295
HCC 2998 = tested on: HCC 2998
MCF7 = tested on: MCF7
OVCAR-5 = tested on: OVCAR-5
IGROV-1 = tested on: IGROV-1
UO-31 = tested on: UO-31
NCI-H460 = tested on: NCI-H460
NCI-H23 = tested on: NCI-H23
LXFL 529 = tested on: LXFL 529
A549 = tested on: A549
NCI-H522 = tested on: NCI-H522
SF-268 = tested on: SF-268
M14 = tested on: M14
SW-620 = tested on: SW-620
SK-MEL-5 = tested on: SK-MEL-5
LOX IMVI = tested on: LOX IMVI
SNB-19 = tested on: SNB-19
SK-OV-3 = tested on: SK-OV-3
KM12 = tested on: KM12
HOP-62 = tested on: HOP-62
UACC-62 = tested on: UACC-62
HT-29 = tested on: HT-29
SN12C = tested on: SN12C
MOLT-4 = tested on: MOLT-4
EKVX = tested on: EKVX
COLO 205 = tested on: COLO 205
SK-MEL-2 = tested on: SK-MEL-2
SK-MEL-28 = tested on: SK-MEL-28
OVCAR-3 = tested on: OVCAR-3
OVCAR-4 = tested on: OVCAR-4
Malme-3M = tested on: Malme-3M
786-0 = tested on: 786-0
OVCAR-8 = tested on: OVCAR-8
M19-MEL = tested on: M19-MEL
HCT-15 = tested on: HCT-15

Measured: GI50

O=C1c2c(O)ccc(O)c2C(=O)c2c(NCCNCCO)ccc(NCCNCCO)c21 [MITOXANTRONE HYDROCHLORIDE]
inactive: UACC-257 1.89 µM
active: TK-10 0.423 µM | ACHN 0.0115 µM | DLD-1 0.491 µM | SR 0.00764 µM | KM-20L2 0.384 µM | A498 0.0619 µM | U-251 0.0091 µM | K562 0.118 µM | XF498 0.0136 µM | DMS-273 0.0119 µM | MDA-MB-435 0.471 µM | HL-60 0.0103 µM | HOP-92 0.0177 µM | CCRF-CEM 0.00598 µM | SNB-78 0.204 µM | CAKI-1 0.00899 µM | NCI-H226 0.0153 µM | HCT-116 0.0553 µM | HOP-18 0.126 µM

CC1[C@@H]2CC=C3[C@H]4CCC5Cc6nc7c(nc6C[C@@]5(C)C4(O)CC(=O)[C@]32CO[C@]12OC(C)(C)CC2O)CC1CC[C@@H]2C3=C[C@H]4O[C@@]5(O[C@@](C)(CO)C[C@@H]5O)C(C)[C@@]4(O)[C@]3(C)[C@@H](O)CC2[C@]1(C)C7 (stereo partly specified)
active: TK-10 0.0204 µM | SNB-75 < 0.0001 µM | DMS-114 0.00011 µM | A498 0.000342 µM | RXF 393 < 0.0001 µM | RPMI-8226 < 0.0001 µM | SF-539 < 0.0001 µM | XF498 < 0.0001 µM | DMS-273 < 0.0001 µM | SF-295 < 0.0001 µM | HCC 2998 0.0748 µM | HL-60 < 0.0001 µM | MCF7 0.00194 µM

CCC(C(=O)O)c1ccc(OCc2ccccc2)cc1 (stereo unspecified)
inactive: TK-10 > 100 µM | OVCAR-5 > 100 µM | IGROV-1 > 100 µM | UO-31 21.5 µM | NCI-H460 > 100 µM | ACHN > 100 µM | NCI-H23 > 100 µM | DLD-1 > 100 µM | SR > 100 µM | LXFL 529 > 100 µM | A549 > 100 µM | KM-20L2 > 100 µM | NCI-H522 > 100 µM | SNB-75 70 µM | SF-268 > 100 µM | M14 > 100 µM | SW-620 > 100 µM | SK-MEL-5 > 100 µM | DMS-114 > 100 µM | LOX IMVI > 100 µM | A498 > 100 µM | SNB-19 > 100 µM | SK-OV-3 > 100 µM | RXF 393 > 100 µM | RPMI-8226 > 100 µM | KM12 > 100 µM | HOP-62 > 100 µM | U-251 > 100 µM | UACC-62 > 100 µM | HT-29 > 100 µM | SF-539 > 100 µM | K562 > 100 µM | SN12C > 100 µM | XF498 > 100 µM | MOLT-4 > 100 µM | DMS-273 > 100 µM | SF-295 > 100 µM | EKVX > 100 µM | HCC 2998 > 100 µM | HL-60 > 100 µM | COLO 205 > 100 µM | SK-MEL-2 > 100 µM | UACC-257 > 100 µM | SK-MEL-28 > 100 µM | HOP-92 > 100 µM | CCRF-CEM > 100 µM | SNB-78 > 100 µM | CAKI-1 > 100 µM | NCI-H226 > 100 µM | OVCAR-3 > 100 µM | OVCAR-4 > 100 µM | HCT-116 > 100 µM | Malme-3M > 100 µM

Oc1ccccc1/C=N/c1ccccc1/N=C/c1ccccc1O
79.4 µM: HCT-15
inactive: TK-10 > 100 µM | 786-0 > 100 µM | IGROV-1 > 100 µM | NCI-H460 62.8 µM | ACHN 30.2 µM | NCI-H23 38.3 µM | SR 19.5 µM | LXFL 529 31.7 µM | A549 > 100 µM | KM-20L2 > 100 µM | NCI-H522 16.7 µM | SF-268 88.1 µM | M14 > 100 µM | SW-620 > 100 µM | SK-MEL-5 86.1 µM | DMS-114 8.89 µM | LOX IMVI > 100 µM | SNB-19 34.4 µM | SK-OV-3 > 100 µM | RPMI-8226 62.7 µM | OVCAR-8 > 100 µM | KM12 > 100 µM | HOP-62 > 100 µM | U-251 30.9 µM | HT-29 > 100 µM | SF-539 71.3 µM | K562 21.5 µM | SN12C > 100 µM | M19-MEL > 100 µM | XF498 47.6 µM | MOLT-4 16.1 µM | DMS-273 85.9 µM | SF-295 88.9 µM | EKVX > 100 µM | HCC 2998 > 100 µM | HL-60 15 µM | COLO 205 > 100 µM | UACC-257 38.7 µM | SK-MEL-28 > 100 µM | CCRF-CEM 8.3 µM | NCI-H226 65.6 µM | OVCAR-3 36.6 µM | HCT-116 > 100 µM | Malme-3M > 100 µM
